# Test results published in patent US20250154144A1 (CHILDREN'S HOSPITAL MEDICAL CENTER, priority 2021, published 2025).
# Like-named read-outs stand apart in the source and are kept apart here.
# Columns and labels:
# MOLM14 D835Y cells = assay: cells; assay type: cell-based; details: Homo sapiens, MOLM-14, 48 h, 48 hours, Cell Titer Glo; read-out: MOLM14 D835Y IC50
# MOLM14 F691L cells = assay: cells; assay type: cell-based; details: Homo sapiens, MOLM-14, 48 h, 48 hours, Cell Titer Glo; read-out: MOLM14 F691L IC50
# THP1 cells = assay: Combination drug screening, Cell Titer Glo, 10 × 10 matrix, THP1 cells; assay type: cell-based; details: single compound range 0-10,000 nM or 0-20,000 nM
# MOLM14(D835Y) cells = assay type: cell-based; details: MOLM14(D835Y) cells; for Excess HSA Score: 10 × 10
# FLT3 = target: T1, FLT3 (Homo sapiens, UniProt P36888); assay: RBC HotSpot Kinase Assay, FLT3; details: FLT3 IC50
# T1 sequence (P36888 610-943 limits assumed): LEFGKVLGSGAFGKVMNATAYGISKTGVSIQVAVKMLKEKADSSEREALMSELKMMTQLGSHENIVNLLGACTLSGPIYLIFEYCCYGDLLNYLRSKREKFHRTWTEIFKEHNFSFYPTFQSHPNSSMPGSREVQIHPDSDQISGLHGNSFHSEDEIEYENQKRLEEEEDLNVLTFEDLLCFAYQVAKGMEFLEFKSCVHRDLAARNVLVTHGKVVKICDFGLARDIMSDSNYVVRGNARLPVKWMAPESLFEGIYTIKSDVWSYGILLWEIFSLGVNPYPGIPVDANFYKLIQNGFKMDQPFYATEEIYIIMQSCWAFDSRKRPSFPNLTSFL
# IRAK1 = IRAK1 (Homo sapiens, UniProt P51617); assay: RBC HotSpot Kinase Assay, IRAK1; details: IRAK1 IC50
# Sequence of IRAK1 (P51617 whole entry): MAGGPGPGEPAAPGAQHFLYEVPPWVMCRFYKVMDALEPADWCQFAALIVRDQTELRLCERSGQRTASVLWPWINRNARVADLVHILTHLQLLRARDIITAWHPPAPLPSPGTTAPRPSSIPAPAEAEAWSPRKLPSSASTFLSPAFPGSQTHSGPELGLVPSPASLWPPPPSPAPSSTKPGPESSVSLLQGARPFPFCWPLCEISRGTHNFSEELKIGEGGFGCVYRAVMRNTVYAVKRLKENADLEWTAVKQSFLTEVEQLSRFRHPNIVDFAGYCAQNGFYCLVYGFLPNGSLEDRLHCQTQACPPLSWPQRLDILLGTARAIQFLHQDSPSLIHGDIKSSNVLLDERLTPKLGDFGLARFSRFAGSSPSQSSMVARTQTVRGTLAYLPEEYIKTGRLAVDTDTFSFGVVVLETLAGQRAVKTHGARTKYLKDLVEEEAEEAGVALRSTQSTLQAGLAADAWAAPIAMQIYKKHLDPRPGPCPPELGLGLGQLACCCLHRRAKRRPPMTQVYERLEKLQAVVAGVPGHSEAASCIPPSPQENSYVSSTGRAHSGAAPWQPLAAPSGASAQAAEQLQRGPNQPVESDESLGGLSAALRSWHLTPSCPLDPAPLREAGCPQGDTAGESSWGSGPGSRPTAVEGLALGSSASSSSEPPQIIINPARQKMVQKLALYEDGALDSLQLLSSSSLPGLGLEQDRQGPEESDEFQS
# IRAK4 = target: T2, IRAK4 (Homo sapiens, UniProt Q9NWZ3); assay: RBC HotSpot Kinase Assay, IRAK4; details: IRAK4 IC50
# T2 sequence (Q9NWZ3 1-460): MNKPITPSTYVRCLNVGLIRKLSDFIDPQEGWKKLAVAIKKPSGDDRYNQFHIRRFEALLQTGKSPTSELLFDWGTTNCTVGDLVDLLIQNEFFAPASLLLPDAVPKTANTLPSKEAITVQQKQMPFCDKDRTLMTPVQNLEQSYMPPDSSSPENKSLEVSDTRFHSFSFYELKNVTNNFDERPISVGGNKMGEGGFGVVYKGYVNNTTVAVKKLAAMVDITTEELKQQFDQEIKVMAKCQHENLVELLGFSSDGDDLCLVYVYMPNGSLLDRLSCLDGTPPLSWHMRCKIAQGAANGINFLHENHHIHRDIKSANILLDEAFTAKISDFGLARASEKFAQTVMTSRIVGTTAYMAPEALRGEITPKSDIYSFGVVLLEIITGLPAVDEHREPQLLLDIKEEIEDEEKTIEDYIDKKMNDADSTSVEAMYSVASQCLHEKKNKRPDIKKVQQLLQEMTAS
# [1] = combination with (+)-BAY-1251152
smiles,measurement,setting,value
"COc1ccn2c(-c3cncc(N[C@@H]4CCCNC4)n3)cnc2c1 [Compound 5, (R)-6-(7-methoxyimidazo[1,2-a]pyridin-3-yl)-N-(piperidin-3-yl)pyrazin-2-amine]",IC50,MOLM14 D835Y cells,24 nM
same,IC50,MOLM14 F691L cells,55 nM
same,Comments,THP1 cells; with (+)-BAY-1251152,Synergistic
same,Excess HSA Score,THP1 cells; with (+)-BAY-1251152,−264.5
same,Comments,THP1 cells; with AMG-232,Antagonistic
same,Excess HSA Score,THP1 cells; with AMG-232,105.5
same,Comments,THP1 cells; with AZD-5363,Synergistic
same,Excess HSA Score,THP1 cells; with AZD-5363,−94.57
same,Comments,THP1 cells; with Eprenetapopt/APR-246,Antagonistic
same,Excess HSA Score,THP1 cells; with Eprenetapopt/APR-246,163.2
same,Comments,THP1 cells; with Ivosidenib,Antagonistic
same,Excess HSA Score,THP1 cells; with Ivosidenib,190
same,Comments,THP1 cells; with Lenalidomide,Antagonistic
same,Excess HSA Score,THP1 cells; with Lenalidomide,264.6
same,Comments,THP1 cells; with Palbociclib,Antagonistic
same,Excess HSA Score,THP1 cells; with Palbociclib,624.7438
same,Comments,THP1 cells; with Prednisolone,Antagonistic
same,Excess HSA Score,THP1 cells; with Prednisolone,31.68
same,Comments,THP1 cells; with SNDX-5613,Antagonistic
same,Excess HSA Score,THP1 cells; with SNDX-5613,340
same,Comments,THP1 cells; with TNO-155,Antagonistic
same,Excess HSA Score,THP1 cells; with TNO-155,28.11
same,Comments,THP1 cells; with Trametinib,Antagonistic
same,Excess HSA Score,THP1 cells; with Trametinib,374.3
same,Comments,THP1 cells; with Ulixertinib,Antagonistic
same,Excess HSA Score,THP1 cells; with Ulixertinib,565.8
same,Comments,THP1 cells; with Venetoclax (ABT-199),Synergistic
same,Excess HSA Score,THP1 cells; with Venetoclax (ABT-199),−1771.116
same,Excess HSA Score,MOLM14(D835Y) cells; [1],11.13
same,Excess HSA Score,MOLM14(D835Y) cells; combination with AMG-232,−114.6
same,Excess HSA Score,MOLM14(D835Y) cells; combination with AZD-5363,−297.4
same,Excess HSA Score,MOLM14(D835Y) cells; combination with Eprenetapopt/APR-246,−154.6246
same,Excess HSA Score,MOLM14(D835Y) cells; combination with Ivosidenib,−34.74
same,Excess HSA Score,MOLM14(D835Y) cells; combination with Lenalidomide,−84.4505
same,Excess HSA Score,MOLM14(D835Y) cells; combination with Palbociclib,−483.7
same,Excess HSA Score,MOLM14(D835Y) cells; combination with Prednisolone,−69.46
same,Excess HSA Score,MOLM14(D835Y) cells; combination with SNDX-5613,−465.3
same,Excess HSA Score,MOLM14(D835Y) cells; combination with TNO-155,−575.9
same,Excess HSA Score,MOLM14(D835Y) cells; combination with Trametinib,213.7
same,Excess HSA Score,MOLM14(D835Y) cells; combination with Ulixertinib,−1042
same,Excess HSA Score,MOLM14(D835Y) cells; combination with Venetoclax (ABT-199),−862.5
same,Comments,MOLM14(D835Y) cells; [1],Antagonistic
same,Comments,MOLM14(D835Y) cells; combination with Ulixertinib,Synergistic
same,IC50,FLT3,< 0.5 nM
same,IC50,IRAK1,62 nM
same,IC50,IRAK4,1 nM
"COc1cc2ncc(-c3cncc(N[C@@H]4CCCNC4)n3)n2cc1C(C)(C)O [Compound 20, (R)-2-(7-methoxy-3-(6-(piperidin-3-ylamino)pyrazin-2-yl)imidazo[1,2-a]pyridin-6-yl)propan-2-ol]",IC50,MOLM14 D835Y cells,43 nM
same,IC50,MOLM14 F691L cells,61 nM
same,IC50,FLT3,< 0.5 nM
same,IC50,IRAK1,5 nM
same,IC50,IRAK4,1 nM
"COc1ccn2c(-c3ccnc(N[C@@H]4CCCNC4)n3)cnc2c1 [Compound 29, (R)-4-(7-methoxyimidazo[1,2-a]pyridin-3-yl)-N-(piperidin-3-yl)pyrimidin-2-amine]",IC50,MOLM14 D835Y cells,12 nM
same,IC50,MOLM14 F691L cells,109 nM
same,IC50,FLT3,< 0.5 nM
same,IC50,IRAK1,13 nM
same,IC50,IRAK4,< 0.5 nM
"FC(F)COc1ccn2c(-c3ccnc(N[C@H]4CNC[C@@H]4F)n3)cnc2c1 [Compound 31, 4-(7-(2,2-difluoroethoxy)imidazo[1,2-a]pyridin-3-yl)-N-((3S,4S)-4-fluoropyrrolidin-3-yl)pyrimidin-2-amine]",IC50,MOLM14 D835Y cells,15 nM
same,IC50,MOLM14 F691L cells,344 nM
same,IC50,FLT3,< 0.5 nM
same,IC50,IRAK1,9 nM
same,IC50,IRAK4,0.7 nM
"FC(F)COc1ccn2c(-c3ccnc(N[C@@H]4CCCNC4)n3)cnc2c1 [Compound 32, (R)-4-(7-(2,2-difluoroethoxy)imidazo[1,2-a]pyridin-3-yl)-N-(piperidin-3-yl)pyrimidin-2-amine]",IC50,MOLM14 D835Y cells,7 nM
same,IC50,MOLM14 F691L cells,77 nM
same,IC50,FLT3,< 0.5 nM
same,IC50,IRAK1,45 nM
same,IC50,IRAK4,2 nM
"FC(F)Oc1ccn2c(-c3ccnc(N[C@H]4CNC[C@@H]4F)n3)cnc2c1 [Compound 34, 4-(7-(difluoromethoxy)imidazo[1,2-a]pyridin-3-yl)-N-((3S,4S)-4-fluoropyrrolidin-3-yl)pyrimidin-2-amine]",IC50,MOLM14 D835Y cells,86 nM
same,IC50,MOLM14 F691L cells,1090 nM
same,IC50,FLT3,< 0.5 nM
same,IC50,IRAK1,10 nM
same,IC50,IRAK4,5 nM
"FC(F)Oc1ccn2c(-c3ccnc(N[C@@H]4CCCNC4)n3)cnc2c1 [Compound 35, (R)-4-(7-(difluoromethoxy)imidazo[1,2-a]pyridin-3-yl)-N-(piperidin-3-yl)pyrimidin-2-amine]",IC50,MOLM14 D835Y cells,39 nM
same,IC50,MOLM14 F691L cells,433 nM
same,IC50,FLT3,< 0.5 nM
same,IC50,IRAK1,120 nM
same,IC50,IRAK4,27 nM
"FC(F)Oc1ccn2c(-c3ccnc(N[C@H]4CNCC[C@@H]4F)n3)cnc2c1 [Compound 36, 4-(7-(difluoromethoxy)imidazo[1,2-a]pyridin-3-yl)-N-((3S,4S)-4-fluoropiperidin-3-yl)pyrimidin-2-amine]",IC50,MOLM14 D835Y cells,43 nM
same,IC50,MOLM14 F691L cells,307 nM
same,IC50,FLT3,< 0.5 nM
same,IC50,IRAK1,17 nM
same,IC50,IRAK4,3 nM
"c1cc(-c2cnc3cc(OC4CC4)ccn23)nc(N[C@@H]2CCCNC2)n1 [Compound 38, (R)-4-(7-cyclopropoxyimidazo [1,2-a]pyridin-3-yl)-N-(piperidin-3-yl)pyrimidin-2-amine]",IC50,MOLM14 D835Y cells,22 nM
same,IC50,MOLM14 F691L cells,193 nM
same,IC50,FLT3,< 0.5 nM
same,IC50,IRAK1,60 nM
same,IC50,IRAK4,6 nM
"O=C1CCCN1c1cn2c(-c3ccnc(N[C@H]4CNC[C@@H]4F)n3)cnc2cn1 [Compound 46, 1-(3-(2-(((3S,4S)-4-fluoropyrrolidin-3-yl)amino)pyrimidin-4-yl)imidazo[1,2-a]pyrazin-6-yl)pyrrolidin-2-one]",IC50,MOLM14 D835Y cells,77 nM
same,IC50,MOLM14 F691L cells,1370 nM
same,IC50,FLT3,< 0.5 nM
same,IC50,IRAK1,64 nM
same,IC50,IRAK4,12 nM
"O=C1CCCN1c1cn2c(-c3ccnc(N[C@@H]4CCCNC4)n3)cnc2cn1 [Compound 47, (R)-1-(3-(2-(piperidin-3-ylamino)pyrimidin-4-yl)imidazo[1,2-a]pyrazin-6-yl)pyrrolidin-2-one]",IC50,MOLM14 D835Y cells,39 nM
same,IC50,MOLM14 F691L cells,344 nM
same,IC50,FLT3,< 0.5 nM
same,IC50,IRAK1,68 nM
same,IC50,IRAK4,12 nM
"O=C1CCCN1c1cn2c(-c3ccnc(N[C@H]4CNCC[C@@H]4F)n3)cnc2cn1 [Compound 48, 1-(3-(2-(((3S,4S)-4-fluoropiperidin-3-yl)amino)pyrimidin-4-yl)imidazo[1,2-a]pyrazin-6-yl)pyrrolidin-2-one]",IC50,MOLM14 D835Y cells,43 nM
same,IC50,MOLM14 F691L cells,273 nM
same,IC50,FLT3,< 0.5 nM
same,IC50,IRAK1,97 nM
same,IC50,IRAK4,18 nM
"CC(C)Oc1ccn2c(-c3nccc(N[C@H]4CNC[C@@H]4F)n3)cnc2c1 [Compound 52, N-((3S,4S)-4-fluoropyrrolidin-3-yl)-2-(7-isopropoxyimidazo[1,2-a]pyridin-3-yl)pyrimidin-4-amine]",IC50,MOLM14 D835Y cells,473 nM
same,IC50,MOLM14 F691L cells,7500 nM
same,IC50,FLT3,5 nM
same,IC50,IRAK1,961 nM
same,IC50,IRAK4,42 nM
"CC(C)Oc1ccn2c(-c3nccc(N[C@@H]4CCCNC4)n3)cnc2c1 [Compound 53, (R)-2-(7-isopropoxyimidazo[1,2-a]pyridin-3-yl)-N-(piperidin-3-yl)pyrimidin-4-amine]",IC50,MOLM14 D835Y cells,205 nM
same,IC50,MOLM14 F691L cells,2170 nM
same,IC50,FLT3,2 nM
same,IC50,IRAK1,1940 nM
same,IC50,IRAK4,60 nM
